According to ChEMBL document CHEMBL1136909, “Discovery of a novel HCV helicase inhibitor by a de novo drug design approach” (Bioorg Med Chem Lett, 2009):
In brackets after ≈: the same amount, converted by molar mass. Activity calls are given as the source filed them. The rule behind the calls is not given here.

How the values were obtained:
Hepacivirus hominis = experiment: Inhibition of HCV recombinant NS3 helicase at 100 uM
[1] = Inhibition of HCV recombinant NS3 helicase; parameters: species or system Hepacivirus hominis
Hepatitis C virus = experiment: Antiviral activity against HCV in human Huh5-2 cells assessed as inhibition of HCV subgenomic replication; assay type: functional, organism-based, Hepacivirus hominis; settings: Huh-5-2
[2] = Cytotoxicity against human Huh5-2 cells by MTS assay; assay type: cell-based, Huh-5-2

Activity (Hepacivirus hominis)	IC50 [1] [nM]	EC50 (Hepatitis C virus) [µg/mL]	Compound	CC50 [2] [µg/mL]
inactive	–	–	COC(=O)c1ccc(CNC(=O)c2cc(/C=C/C(C)=O)c[nH]2)cc1	–
–	260	3 (≈ 9.19 µM)	COC(=O)c1ccc(CNC(=O)c2ccc(/C=C/C(C)=O)[nH]2)cc1	10 (≈ 30.6 µM)
